The numbers were not newly measured in US20110257192A1, “COMPOUND FOR TREATMENT OF RESPIRATORY CONDITION OR DISEASE” (BIOTA SCIENTIFIC MANAGEMENT PTY LTD, priority 2010, published 2011), which cites them from elsewhere.

The conditions of this series: administered orally.

As to `Cc1cc(CCCOc2c(C)cc(-c3noc(C(F)(F)F)n3)cc2C)on1` [pleconaril], the “effect on asthma exacerbation” value is given as “did not have an effect on asthma exacerbation”.
